Measurements reported in ChEMBL document CHEMBL4840329, “Antibiotic Dixiamycins from a Cold-Seep-Derived Streptomyces olivaceus” (2021).
Converted amounts (≈) assume the structure as drawn.

Assays:
[1] = tested on: Escherichia coli; assay: Anti-MDR bacterial activity against Escherichia coli CCARM 1009 assessed as inhibition of bacterial growth incubated for 18 hrs by microplate reader analysis; format: functional
[2] = tested on: Salmonella typhimurium; assay: Anti-MDR bacterial activity against Salmonella typhimurium CCARM 8250 assessed as inhibition of bacterial growth incubated for 18 hrs by microplate reader analysis; format: functional, Salmonella enterica subsp. enterica serovar Typhimurium; conditions: Salmonella enterica
[3] = tested on: Enterococcus faecium; assay: Anti-MDR bacterial activity against Enterococcus faecium CCARM 5203 assessed as inhibition of bacterial growth incubated for 18 hrs by microplate reader analysis; format: functional
[4] = tested on: Staphylococcus aureus; assay: Anti-MDR bacterial activity against Staphylococcus aureus CCARM 3090 assessed as inhibition of bacterial growth incubated for 18 hrs by microplate reader analysis; format: functional
[5] = tested on: Enterococcus faecalis; assay: Anti-MDR bacterial activity against Enterococcus faecalis CCARM 5172 assessed as inhibition of bacterial growth incubated for 18 hrs by microplate reader analysis; format: functional
[6] = tested on: Micrococcus luteus; assay: Anti-MDR bacterial activity against Micrococcus luteus ML01 assessed as inhibition of bacterial growth incubated for 18 hrs by microplate reader analysis; format: functional
[7] = tested on: Pseudomonas aeruginosa; assay: Anti-MDR bacterial activity against Pseudomonas aeruginosa 15690 assessed as inhibition of bacterial growth incubated for 18 hrs by microplate reader analysis; format: functional
[8] = Enterococcus faecium, CCARM 5203, 18 h, read-out: MIC
[9] = Staphylococcus aureus, CCARM 3090, 18 h, read-out: MIC
[10] = Enterococcus faecalis, CCARM 5172, 18 h, read-out: MIC
[11] = Micrococcus luteus, ML01, 18 h, read-out: MIC
[12] = Pseudomonas aeruginosa, 15690, 18 h, read-out: MIC

| MIC [1] [µg/mL] | MIC [2] [µg/mL] | MIC [3, 8] [µg/mL] | MIC [4, 9] [µg/mL] | MIC [5, 10] [µg/mL] | MIC [6, 11] [µg/mL] | MIC [7, 12] [µg/mL] | MIC ([3]; 18 h) [µg/mL] | MIC ([4]; 18 h) [µg/mL] | MIC ([5]; 18 h) [µg/mL] | MIC ([6]; 18 h) [µg/mL] | MIC [7] [µg/mL] | MIC ([7]; 18 h) [µg/mL] | MIC [6] [µg/mL] | Compound | MIC ([4]; Staphylococcus aureus, CCARM 3090, read-out: MIC) [µg/mL] |
| --- | --- | --- | --- | --- | --- | --- | --- | --- | --- | --- | --- | --- | --- | --- | --- |
| > 12.5 | > 12.5 | 6.25 (≈ 7.92 µM) | 12.5 (≈ 15.8 µM) | > 12.5 | > 12.5 | > 12.5 |  |  |  |  |  |  |  | C[C@@]1(C(=O)O)[C@@H](O)CC[C@]2(C)c3cc4c(cc3CC[C@@H]12)[nH]c1ccc(S(=O)(=O)c2c3c(cc5c2[nH]c2ccccc25)[C@@]2(C)CC[C@H](O)[C@@](C)(C(=O)O)[C@@H]2CC3)cc14 |  |
| > 12.5 | > 12.5 | 1.56 (≈ 2.15 µM) | 0.78 (≈ 1.08 µM) | 3.12 (≈ 4.3 µM) | 3.12 (≈ 4.3 µM) | 0.78 (≈ 1.08 µM) |  |  |  |  |  |  |  | C[C@@]1(C(=O)O)[C@@H](O)CC[C@]2(C)c3cc4c(cc3CC[C@@H]12)[nH]c1ccc(-n2c3ccccc3c3cc5c(cc32)CC[C@H]2[C@](C)(C(=O)O)[C@@H](O)CC[C@]52C)cc14 |  |
| > 12.5 | > 12.5 |  |  |  |  | 1.56 (≈ 2.15 µM) | 6.25 (≈ 8.62 µM) | 3.12 (≈ 4.3 µM) | 6.25 (≈ 8.62 µM) | 6.25 (≈ 8.62 µM) |  |  |  | C[C@@]1(C(=O)O)[C@@H](O)CC[C@]2(C)c3cc4c(cc3CC[C@@H]12)[nH]c1c(-n2c3ccccc3c3cc5c(cc32)CC[C@H]2[C@](C)(C(=O)O)[C@@H](O)CC[C@]52C)cccc14 (stereo in doubt; 1) |  |
|  |  |  |  |  |  |  | 3.12 (≈ 4.3 µM) | 0.78 (≈ 1.08 µM) | 3.12 (≈ 4.3 µM) | 3.12 (≈ 4.3 µM) | 1.56 (≈ 2.15 µM) |  |  | C[C@@]1(C(=O)O)[C@@H](O)CC[C@]2(C)c3cc4c(cc3CC[C@@H]12)[nH]c1c(-n2c3ccccc3c3cc5c(cc32)CC[C@H]2[C@](C)(C(=O)O)[C@@H](O)CC[C@]52C)cccc14 (stereo in doubt; 2) |  |
| > 12.5 | > 12.5 | 12.5 (≈ 17.2 µM) | 6.25 (≈ 8.62 µM) | > 12.5 | > 12.5 | 6.25 (≈ 8.62 µM) |  |  |  |  |  |  |  | C[C@@]1(C(=O)O)[C@@H](O)CC[C@]2(C)c3cc4c5ccccc5n(-c5c6c(cc7c5[nH]c5ccccc57)[C@@]5(C)CC[C@H](O)[C@@](C)(C(=O)O)[C@@H]5CC6)c4cc3CC[C@@H]12 (stereo in doubt; 3) |  |
|  |  |  |  |  |  |  | >12.5 | >12.5 |  |  |  | >12.5 |  | C[C@@]1(C(=O)O)[C@@H](O)CC[C@]2(C)c3cc4c5ccccc5n(-c5c6c(cc7c5[nH]c5ccccc57)[C@@]5(C)CC[C@H](O)[C@@](C)(C(=O)O)[C@@H]5CC6)c4cc3CC[C@@H]12 (stereo in doubt; 4) |  |
| > 12.5 | > 12.5 | 3.12 (≈ 4.3 µM) | 3.12 (≈ 4.3 µM) |  | 6.25 (≈ 8.62 µM) |  |  |  | 6.25 (≈ 8.62 µM) |  |  | 3.12 (≈ 4.3 µM) |  | C[C@@]1(C(=O)O)[C@@H](O)CC[C@]2(C)c3cc4c5ccccc5n(-n5c6ccccc6c6cc7c(cc65)CC[C@H]5[C@](C)(C(=O)O)[C@@H](O)CC[C@]75C)c4cc3CC[C@@H]12 (stereo in doubt; 5) |  |
|  |  |  |  |  |  |  | 1.56 (≈ 2.15 µM) | 1.56 (≈ 2.15 µM) | 1.56 (≈ 2.15 µM) |  |  | 0.78 (≈ 1.08 µM) | 6.25 (≈ 8.62 µM) | C[C@@]1(C(=O)O)[C@@H](O)CC[C@]2(C)c3cc4c5ccccc5n(-n5c6ccccc6c6cc7c(cc65)CC[C@H]5[C@](C)(C(=O)O)[C@@H](O)CC[C@]75C)c4cc3CC[C@@H]12 (stereo in doubt; 6) |  |

| Compound | MIC [1] [µg/mL] | MIC [2] [µg/mL] | MIC [3, 8] [µg/mL] | MIC [4, 9] [µg/mL] | MIC [5, 10] [µg/mL] | MIC [6, 11] [µg/mL] | MIC [7, 12] [µg/mL] | MIC ([3]; 18 h) [µg/mL] | MIC ([4]; 18 h) [µg/mL] | MIC ([5]; 18 h) [µg/mL] | MIC ([6]; 18 h) [µg/mL] | MIC [7] [µg/mL] | MIC ([7]; 18 h) [µg/mL] | MIC [6] [µg/mL] | MIC ([4]; Staphylococcus aureus, CCARM 3090, read-out: MIC) [µg/mL] |
| --- | --- | --- | --- | --- | --- | --- | --- | --- | --- | --- | --- | --- | --- | --- | --- |
| CN(C)[C@@H]1C(O)=C(C(N)=O)C(=O)[C@@]2(O)C(O)=C3C(=O)c4c(O)cccc4[C@@](C)(O)[C@H]3C[C@@H]12 [TETRACYCLINE] | 1.56 (≈ 3.51 µM) | > 25 | 1.56 (≈ 3.51 µM) |  | > 25 | 6.25 (≈ 14.1 µM) | 12.5 (≈ 28.1 µM) |  |  |  |  |  |  |  | 6.25 (≈ 14.1 µM) |
